Measured values published in the supplement of paper PMC10307832.

How the values were obtained:
Test in all cases: relative viability (nuclei count vs DMSO), 5 days (fraction); higher = more cells survive
Zebularine + Alpelisib = compound: O=c1ncccn1[C@@H]1O[C@H](CO)[C@@H](O)[C@H]1O [Zebularine] + Cc1nc(NC(=O)N2CCC[C@H]2C(N)=O)sc1-c1ccnc(C(C)(C)C(F)(F)F)c1 [Alpelisib] (partner 2 µM)
How it was run: (§1)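 Lung cancer cell lines in 1536-well plates got either a single drug or a fixed anchor-drug dose together with five library-drug doses (not always all listed) in √10 steps, by pin tool, on the day after seeding. Nuclei were counted after 5 days, and relative viability is the treated-to-vehicle ratio of nuclei counts. Values are medians of duplicate plates.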

BI-D1870 + Phenformin = compound: CC(C)CCN1c2nc(Nc3cc(F)c(O)c(F)c3)ncc2N(C)C(=O)C1C [BI-D1870] + N=C(N)NC(=N)NCCc1ccccc1 [Phenformin] (partner 250 µM)
How it was run: as §1

BI-D1870 + Navitoclax = compound: CC(C)CCN1c2nc(Nc3cc(F)c(O)c(F)c3)ncc2N(C)C(=O)C1C [BI-D1870] + CC1(C)CCC(c2ccc(Cl)cc2)=C(CN2CCN(c3ccc(C(=O)NS(=O)(=O)c4ccc(N[C@H](CCN5CCOCC5)CSc5ccccc5)c(S(=O)(=O)C(F)(F)F)c4)cc3)CC2)C1 [Navitoclax] (partner 0.5 µM)
How it was run: as §1

Zebularine + Luminespib = compound: O=c1ncccn1[C@@H]1O[C@H](CO)[C@@H](O)[C@H]1O [Zebularine] + CCNC(=O)c1noc(-c2cc(C(C)C)c(O)cc2O)c1-c1ccc(CN2CCOCC2)cc1 [Luminespib] (partner 0.01 µM)
How it was run: as §1

Cell Line | relative viability (Zebularine + Alpelisib; first compound 1 µM) | relative viability (Zebularine + Alpelisib; first compound 3.162 µM) | relative viability (Zebularine + Alpelisib; first compound 10 µM) | relative viability (Zebularine + Alpelisib; first compound 31.62 µM) | relative viability (Zebularine + Alpelisib; first compound 100 µM) | relative viability (BI-D1870 + Phenformin; first compound 0.04 µM) | relative viability (BI-D1870 + Phenformin; first compound 0.1265 µM) | relative viability (BI-D1870 + Phenformin; first compound 0.4 µM) | relative viability (BI-D1870 + Phenformin; first compound 1.265 µM) | relative viability (BI-D1870 + Phenformin; first compound 4 µM) | relative viability (BI-D1870 + Navitoclax; first compound 0.04 µM) | relative viability (BI-D1870 + Navitoclax; first compound 0.1265 µM) | relative viability (BI-D1870 + Navitoclax; first compound 0.4 µM) | relative viability (BI-D1870 + Navitoclax; first compound 1.265 µM) | relative viability (BI-D1870 + Navitoclax; first compound 4 µM) | relative viability (Zebularine + Luminespib; first compound 1 µM) | relative viability (Zebularine + Luminespib; first compound 3.162 µM) | relative viability (Zebularine + Luminespib; first compound 10 µM) | relative viability (Zebularine + Luminespib; first compound 31.62 µM) | relative viability (Zebularine + Luminespib; first compound 100 µM)
HCC-78 | 0.358 | 0.155 | 0.104 | 0.326 | 0.292 | 0.72 | 0.796 | 0.795 | 0.822 | 0.593 | 0.736 | 0.825 | 0.81 | 0.987 | 0.778 | – | – | – | – | –
HCC-366 | 0.409 | 0.434 | 0.161 | 0.509 | 0.182 | 0.705 | 0.587 | 0.608 | 0.608 | 0.573 | 1.15 | 0.964 | 1.08 | 1.01 | 1.05 | – | – | – | – | –
HCC-827 | 1.02 | 1.11 | 0.84 | 0.673 | 0.305 | 0.436 | 0.38 | 0.375 | 0.436 | 0.366 | 1.07 | 1.03 | 1.02 | 1.02 | 0.941 | 0.756 | 0.909 | 0.353 | 0.582 | 0.257
HOP-62 | 0.932 | 0.64 | 0.603 | 0.22 | 0.127 | 0.705 | 0.657 | 0.719 | 0.823 | 0.664 | 1.06 | 1.01 | 0.995 | 1.2 | 1.01 | 0.991 | 0.906 | 0.263 | 0.296 | 0.178
IA-LM | 0.768 | 0.584 | 0.494 | 1.13 | 0.996 | – | – | – | – | – | 0.818 | 0.926 | 0.764 | 0.577 | 0.19 | – | – | – | – | –
LC-2-ad | 1.03 | 0.865 | 0.539 | 0.491 | 0.135 | 0.586 | 0.657 | 0.502 | 0.636 | 0.54 | 0.549 | 0.44 | 0.444 | 0.41 | 0.244 | 1.02 | 1.01 | 0.699 | 0.73 | 0.541
LCLC-97TM1 | 0.23 | 0.224 | 0.193 | 0.12 | 0.112 | 0.458 | 0.472 | 0.396 | 0.417 | 0.453 | 0.407 | 0.398 | 0.574 | 0.364 | 0.613 | 0.806 | 0.777 | 0.427 | 0.241 | 0.21
LCLC-103H | 1.08 | 0.945 | 0.95 | 0.904 | 0.761 | 0.376 | 0.301 | 0.316 | 0.36 | 0.324 | – | – | – | – | – | 1.07 | 0.996 | 0.696 | 0.705 | 0.475
LK-2 | 1.15 | 1.29 | 0.541 | 0.665 | 0.407 | 0.631 | 0.437 | 0.451 | 0.545 | 0.217 | 1.22 | 0.885 | 0.964 | 1.05 | 0.945 | 0.17 | 0.176 | 0.213 | 0.182 | 0.176
LOU-NH91 | 0.703 | 0.719 | 0.686 | 0.693 | 0.56 | 0.744 | 0.63 | 0.703 | 0.817 | 0.558 | 0.854 | 0.631 | 0.721 | 0.662 | 0.522 | 0.332 | 0.33 | 0.479 | 0.298 | 0.3
NCI-H358 | 0.888 | 0.786 | 0.578 | 0.495 | 0.266 | 0.405 | 0.289 | 0.343 | 0.326 | 0.218 | – | – | – | – | – | 0.355 | 0.462 | 0.251 | 0.269 | 0.184
NCI-H522 | – | – | – | – | – | 0.754 | 0.603 | 0.677 | 0.763 | 0.692 | – | – | – | – | – | 0.928 | 0.881 | 0.99 | 0.776 | 0.665
NCI-H650 | 1.04 | 1.2 | 0.894 | 0.462 | 0.319 | 0.444 | 0.446 | 0.432 | 0.38 | 0.322 | – | – | – | – | – | 0.776 | 0.742 | 0.595 | 0.355 | 0.224
NCI-H661 | 0.653 | 0.498 | 0.333 | 0.737 | 0.603 | 0.27 | 0.28 | 0.281 | 0.289 | 0.269 | – | – | – | – | – | 1.02 | 0.948 | 0.686 | 1.01 | 0.895
NCI-H1299 | 1.05 | 1.16 | 0.836 | 1.16 | 0.529 | – | – | – | – | – | 1.04 | 1 | 1.09 | 1.01 | 0.843 | – | – | – | – | –
NCI-H1563 | 0.932 | 0.888 | 0.927 | 0.955 | 0.909 | 0.669 | 0.651 | 0.643 | 0.682 | 0.728 | – | – | – | – | – | 0.519 | 0.517 | 0.518 | 0.521 | 0.514
NCI-H1623 | – | – | – | – | – | 0.574 | 0.494 | 0.562 | 0.572 | 0.542 | – | – | – | – | – | 0.629 | 0.503 | 0.592 | 0.468 | 0.293
NCI-H1650 | – | – | – | – | – | 0.368 | 0.362 | 0.358 | 0.414 | 0.304 | 1.26 | 1.05 | 1.23 | 1.34 | 1.15 | 0.188 | 0.222 | 0.176 | 0.234 | 0.225
NCI-H1703 | 0.311 | 0.337 | 0.307 | 0.325 | 0.353 | – | – | – | – | – | 1.1 | 0.846 | 1.02 | 1.28 | 0.745 | – | – | – | – | –
NCI-H2342 | – | – | – | – | – | 0.546 | 0.609 | 0.606 | 0.733 | 0.829 | – | – | – | – | – | 0.835 | 0.783 | 0.621 | 0.669 | 0.576
SW 900 | – | – | – | – | – | 0.748 | 0.452 | 0.63 | 0.672 | 0.618 | – | – | – | – | – | 0.187 | 0.21 | 0.218 | 0.162 | 0.137
